Measurements published in paper PMC4139341 (PLoS ONE, 2014).
pIC50, pKi: −log10 of the molar value.

Key:
AChE = AChE (Electrophorus electricus, UniProt O42275); assay: biochemical
Procedure: The modified method of Ellman et al. was adopted to measure AChE activity. Briefly, 25 µl (0.3 U/ml) AChE from Electric eel fish (Electrophorus electricus) was incubated with and without different concentrations of drugs selected from Molecular Docking studies. The reaction was carried out for 15 min at 25°C. […] Total volume of the reaction was made up to 1 ml by Tris buffer, pH 8.0. ATCI hydrolysis was measured by colored product formation, 5-thio-2-nitrobenzoate anion by reaction between DTNB and thiocholine, a hydrolysis product of ATCI. The formation of the colored product was measured at 405 nm wavelength after 30 min. The background was determined from negative controls (omission of AChE enzyme).
(§1) Lineweaver-Burk double reciprocal plot was plotted in order to determine the Km. […] The Ki was calculated directly from IC50 value using Cheng-Prussoffs classical equation [45]. [drawing 1]
(§2) The reciprocals of reaction rate (1/v) for each inhibitor concentration were plotted against the reciprocals of the substrate concentrations (1/S).

Aβ13–22 [1] = target: T1, Aβ13–22 (Homo sapiens, UniProt P05067); settings: incubated 7 days, protriptyline 0.010 mM; ∼400 nm average without
Procedure: (§3) Aβ13–22 peptide ([…]), the aggregation prone region of Aβ, was synthesized from Thermo Fisher Scientific. Synthetic Aβ13–22 peptide was dissolved in 10% ammonium hydroxide and sonicated for 5 min. It was then diluted in 10 mM PBS, pH 7.0 to a final concentration of 200 µM.

Bovine trypsin = Bovine trypsin (Bos taurus, UniProt P00760); settings: 0.1 and 0.5 mM
Chain of Bovine trypsin (P00760 24-246): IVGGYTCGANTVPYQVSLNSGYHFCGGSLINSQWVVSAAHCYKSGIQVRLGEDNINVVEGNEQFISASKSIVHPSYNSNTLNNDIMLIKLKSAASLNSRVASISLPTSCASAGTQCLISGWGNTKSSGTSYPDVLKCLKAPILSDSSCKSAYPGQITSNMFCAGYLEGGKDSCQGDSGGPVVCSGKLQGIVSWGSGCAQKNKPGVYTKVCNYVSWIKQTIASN
Procedure: Activity of Bovine trypsin was estimated using enzyme-specific chromogenic substrate BApNA [46]. […] Further, 1 ml BApNA was added to the reaction mixture and incubated for 10 min at 37°C. The reaction was terminated by addition of 200 µl of 30% acetic acid and absorbance was measured at 410 nm.

[2] = target: AChE activity in neuro2a cells (Mus musculus, UniProt P21836); settings: 25 µM and 60 µM protriptyline
Chain of AChE activity in neuro2a cells (P21836 32-614): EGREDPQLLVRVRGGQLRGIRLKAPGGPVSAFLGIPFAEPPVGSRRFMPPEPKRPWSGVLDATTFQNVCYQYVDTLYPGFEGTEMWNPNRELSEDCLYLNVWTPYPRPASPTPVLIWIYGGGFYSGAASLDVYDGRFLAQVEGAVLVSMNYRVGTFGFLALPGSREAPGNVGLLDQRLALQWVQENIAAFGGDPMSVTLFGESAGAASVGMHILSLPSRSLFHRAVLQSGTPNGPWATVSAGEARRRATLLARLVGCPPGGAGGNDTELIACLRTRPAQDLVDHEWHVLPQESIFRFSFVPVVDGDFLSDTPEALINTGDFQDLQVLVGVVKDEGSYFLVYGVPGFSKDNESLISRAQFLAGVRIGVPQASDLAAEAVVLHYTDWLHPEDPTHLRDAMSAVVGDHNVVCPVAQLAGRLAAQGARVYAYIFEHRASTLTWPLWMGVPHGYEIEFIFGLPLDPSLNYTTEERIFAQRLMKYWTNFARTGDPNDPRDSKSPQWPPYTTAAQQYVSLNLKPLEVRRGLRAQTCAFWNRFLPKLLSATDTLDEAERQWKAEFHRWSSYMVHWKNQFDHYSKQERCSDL
Procedure: Murine neuro2a neuroblastoma cells were obtained from National Center for Cell Science, Pune, India. The cells were maintained in Dulbecco's modified Eagle's medium (DMEM) and 10% Fetal Bovine Serum (FBS). Cells were maintained at 37°C in humidified air containing 5% CO2 and were grown in monolayer cultures.

BACE-1 = BACE-1 (Homo sapiens, UniProt P56817); assay: biochemical
Chain of BACE-1 (P56817 46-501): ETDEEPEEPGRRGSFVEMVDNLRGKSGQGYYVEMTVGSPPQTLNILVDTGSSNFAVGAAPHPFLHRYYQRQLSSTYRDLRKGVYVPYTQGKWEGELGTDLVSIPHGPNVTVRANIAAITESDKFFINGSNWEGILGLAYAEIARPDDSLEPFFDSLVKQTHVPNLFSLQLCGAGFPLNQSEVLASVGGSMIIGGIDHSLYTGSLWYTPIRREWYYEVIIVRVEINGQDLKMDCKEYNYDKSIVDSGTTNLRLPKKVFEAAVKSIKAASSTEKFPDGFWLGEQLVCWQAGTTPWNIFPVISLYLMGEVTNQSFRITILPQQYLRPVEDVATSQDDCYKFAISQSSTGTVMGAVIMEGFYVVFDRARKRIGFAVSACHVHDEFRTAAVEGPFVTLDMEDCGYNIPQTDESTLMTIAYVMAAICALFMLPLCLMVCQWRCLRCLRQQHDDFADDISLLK
Procedure: BACE-1 activity was studied in accordance with the manufacturer's instructions (Sigma). […] Negative control included all the reactants except BACE-1 enzyme. After 2 h, fluorescence emission was measured at 405 nm upon excitation at 320 nm.
as §1, §2

glycation of insulin = glycation of insulin (Homo sapiens, UniProt P01308); settings: MALDI; 500 µM and 1000 µM protriptyline
Chain of glycation of insulin (P01308 25-54 limits assumed): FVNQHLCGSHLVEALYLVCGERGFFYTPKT
Procedure: (§4) 1.5mg/ml insulin and 0.1 M glucose were incubated with various concentrations of protryptiline in 10 mM PBS, pH 7.0 for 7 days. These samples were further used to study glycation inhibition by MALDI. BSA glycation reaction was performed in a similar manner with 1mg/ml BSA concentration and inhibition was studied by AGE fluorescence and Thioflavin T assay ^1.

[3] = target: glycation of BSA (Bovine Serum Albumin) (Bos taurus, UniProt P02769); settings: AGE fluorescence and Thioflavin T fluorescence
Chain of glycation of BSA (Bovine Serum Albumin) (P02769 25-607): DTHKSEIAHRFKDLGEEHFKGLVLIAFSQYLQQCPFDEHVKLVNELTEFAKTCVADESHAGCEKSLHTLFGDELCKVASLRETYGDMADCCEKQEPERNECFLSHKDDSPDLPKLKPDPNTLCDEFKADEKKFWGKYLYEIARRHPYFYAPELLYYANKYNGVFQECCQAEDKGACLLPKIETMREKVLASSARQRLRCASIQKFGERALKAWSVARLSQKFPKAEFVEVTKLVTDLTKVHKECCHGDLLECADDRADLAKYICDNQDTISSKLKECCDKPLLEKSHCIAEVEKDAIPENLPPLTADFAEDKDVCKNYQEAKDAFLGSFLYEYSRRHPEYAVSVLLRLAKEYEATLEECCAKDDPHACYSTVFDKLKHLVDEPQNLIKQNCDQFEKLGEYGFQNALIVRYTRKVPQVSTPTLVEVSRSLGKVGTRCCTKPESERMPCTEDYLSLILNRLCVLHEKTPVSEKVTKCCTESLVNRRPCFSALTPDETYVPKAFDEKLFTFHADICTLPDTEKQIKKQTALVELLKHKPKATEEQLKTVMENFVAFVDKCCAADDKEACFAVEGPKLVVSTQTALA
Procedure: as §4

ADAM17 = ADAM17 (Homo sapiens, UniProt P78536); assay: biochemical; settings: read-out: inhibition of ADAM 17
Chain of ADAM17 (P78536 215-824, species assumed): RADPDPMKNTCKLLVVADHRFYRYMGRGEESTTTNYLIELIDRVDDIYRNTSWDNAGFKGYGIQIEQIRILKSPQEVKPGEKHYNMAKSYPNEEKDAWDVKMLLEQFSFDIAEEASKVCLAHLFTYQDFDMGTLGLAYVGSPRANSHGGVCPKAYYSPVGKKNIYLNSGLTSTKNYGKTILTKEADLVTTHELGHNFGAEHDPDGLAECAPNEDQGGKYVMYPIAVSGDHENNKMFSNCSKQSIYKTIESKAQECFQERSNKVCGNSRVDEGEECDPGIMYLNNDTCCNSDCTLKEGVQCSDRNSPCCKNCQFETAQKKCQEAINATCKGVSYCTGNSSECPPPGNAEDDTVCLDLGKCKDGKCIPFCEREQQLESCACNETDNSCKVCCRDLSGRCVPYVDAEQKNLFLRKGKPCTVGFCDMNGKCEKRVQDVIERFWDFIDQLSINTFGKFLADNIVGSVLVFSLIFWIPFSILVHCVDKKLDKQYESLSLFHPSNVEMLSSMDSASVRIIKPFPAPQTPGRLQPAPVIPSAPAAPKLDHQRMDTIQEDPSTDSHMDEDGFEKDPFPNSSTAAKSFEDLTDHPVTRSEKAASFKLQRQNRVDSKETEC
Procedure: Fluorescence was measured at 328 nm and 420 nm for excitation and emission respectively.

glycation of Aβ13–22 = glycation of Aβ13–22 (Homo sapiens, UniProt P05067); settings: excitation 370 nm, emission 440 nm; 0.1 M glucose, 7 days
Procedure: The details of insulin and BSA glycation are described in Method S1. […] These samples were further used to study glycation mediated Aβ aggregation by different assays.
Glycation associated fluorescence of Aβ was measured in amyloid, glycated amyloid treated with or without protryptiline at 370 nm excitation and emission was scanned from 400–550 nm.

Aβ13–22 [4] = target: T1, Aβ13–22
Procedure: as §3
Inhibition of aggregation/ glycation mediated aggregation of Aβ was detected by static light scattering method using a Perkin-Elmer Luminescence spectrometer LS50B. Both excitation and emission wavelengths were set at 400 nm. Excitation and emission slit width was set to 10 nm and 2.5 nm, respectively. Scattering was recorded for 60 sec.

Aβ13–22 [5] = target: T1, Aβ13–22; assay: biochemical
Procedure: as §3
Thioflavin T assay was performed on 7th day of incubation. 50 µl (25 µM) of Aβ13–22 was mixed with 150 µl of Thioflavin T (ThT) stock solution (50 µM ThT in PBS pH 7.0) and placed in 96-well plate (black with flat bottom, Cornings). Fluorescence emission was measured at 460–550 nm upon excitation at 440 nm. To account for background fluorescence, the fluorescence intensity measured from each control solution without Aβ was subtracted from each solution containing Aβ13–22.

Chain of AChE (O42275 24-633): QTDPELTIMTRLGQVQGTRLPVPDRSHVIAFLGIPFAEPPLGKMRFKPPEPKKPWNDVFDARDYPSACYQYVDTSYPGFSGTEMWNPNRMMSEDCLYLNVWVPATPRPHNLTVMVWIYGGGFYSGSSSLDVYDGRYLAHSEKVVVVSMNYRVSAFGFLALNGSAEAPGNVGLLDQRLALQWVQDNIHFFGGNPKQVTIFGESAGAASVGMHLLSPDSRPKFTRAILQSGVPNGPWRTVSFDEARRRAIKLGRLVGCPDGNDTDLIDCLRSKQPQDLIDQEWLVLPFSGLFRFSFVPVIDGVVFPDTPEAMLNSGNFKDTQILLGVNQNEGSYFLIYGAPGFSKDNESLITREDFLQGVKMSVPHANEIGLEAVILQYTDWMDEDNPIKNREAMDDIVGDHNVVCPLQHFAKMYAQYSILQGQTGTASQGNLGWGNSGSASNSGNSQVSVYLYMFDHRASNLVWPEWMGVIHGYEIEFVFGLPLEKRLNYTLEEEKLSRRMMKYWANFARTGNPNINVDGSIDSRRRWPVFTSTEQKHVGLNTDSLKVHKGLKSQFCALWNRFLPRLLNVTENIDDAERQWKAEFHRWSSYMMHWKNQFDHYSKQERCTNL

SMILES | pIC50 (AChE) | height of Aβ13–22 aggregates (AFM) (Aβ13–22 [1]) [nm] | inhibition of trypsin activity (Bovine trypsin) | AChE activity in neuro2a cells [2] | pKi (BACE-1) | pIC50 (BACE-1; IC50 for BACE1, summary statement) | pIC50 (BACE-1; IC50 for BACE-1, 2 h at 37°C) | type of BACE-1 inhibition (BACE-1; Lineweaver-Burk plot, 15 µM protriptyline) | glycation of insulin (glycation of insulin) | glycation of BSA [3] | inhibition at 100 µM (ADAM17) [%] | inhibition at 500 µM (ADAM17) [%] | glycation associated fluorescence of Aβ (glycation of Aβ13–22) | light scattering of Aβ aggregates (Aβ13–22 [4]) | pIC50 (Aβ13–22 [5]) | Thioflavin T fluorescence of Aβ13–22 (Aβ13–22 [5]) | lag time of nucleation phase of Aβ13–22 aggregation (ThT fluorescence) (Aβ13–22 [5]) [h]
CN(C)CCC=C1c2ccccc2CCc2ccccc21 [amitriptyline] | 3.22 |  |  |  |  |  |  |  |  |  |  |  |  |  |  |  | 
CNCCC=C1c2ccccc2CCc2ccccc21 [nortriptyline] | 3.87 |  |  |  |  |  |  |  |  |  |  |  |  |  |  |  | 
CNCCCC1c2ccccc2C=Cc2ccccc21 [protriptyline] |  | ~100 | not able to inhibit trypsin activity | concentration dependent decrease in AChE activity | 5.30 | > 3.82 | ~4.60 | competitive inhibition | inhibited glycation of insulin | inhibited glycation | ~3 | ~25 | reduced by protriptyline in a concentration dependent manner | reduced the light scattering in a concentration dependent manner | > 3.82 | Concentration dependent decrease in Thioflavin T fluorescence | ~50
